Patent US20240158348A1, “HERBICIDAL CYCLIC AMIDES N-SUBSTITUTED WITH A HALOALKYLSULFONYLANILIDE GROUP” (FMC Corporation, priority 2021, published 2024)

What was measured:
Type in all cases: in vivo
[1] = system: oat, wild (wild oat, Avena fatua); test: Test C postemergence, wild oat; details: for Oat, Wild plant response rating: 31 g ai/ha Postemergence, visual injury, 0 to 100 scale (0 no effect, 100 complete control); for Plant response rating (0 to 100 scale), Oat, Wild: 125 g ai/ha Postemergence, 0 is no effect, 100 is complete control
[2] = system: wheat (Triticum aestivum); test: Test C postemergence, wheat; details: visual injury, 0 to 100 scale (0 no effect, 100 complete control)
In short: (§1)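 Herbicidal effect was estimated visually on a 0–100 scale 10 or 12 days after spraying. Formulation: non-phytotoxic solvent mixture with surfactant. Timing: directed soil spray after sowing, or postemergence on seedlings bearing one or two leaves.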

[3] = system: blackgrass (Alopecurus myosuroides); test: Test C preemergence, blackgrass; details: 0 is no effect, 100 is complete control
In short: as §1

[4] = system: foxtail, giant (giant foxtail, Setaria faberi); test: Test C preemergence, giant foxtail; details: 0 is no effect, 100 is complete control
In short: as §1

[5] = system: oat, wild (wild oat, Avena fatua); test: Test C preemergence, wild oat; details: 0 is no effect, 100 is complete control
In short: as §1

[6] = system: ragweed (common ragweed, Ambrosia artemisiifolia); test: Test C preemergence, ragweed; details: 0 is no effect, 100 is complete control
In short: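 Injury is given as a visual 0–100 rating, where 100 is complete control, made against untreated plants after 10 or 12 greenhouse days. Galium received a postemergence spray at the one- to two-leaf stage (2–10 cm tall). Corn, ragweed and goosegrass seeds in loam-sand blend received a directed preemergence soil spray; test chemicals were formulated in a surfactant-containing non-phytotoxic solvent.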

[7] = system: ducksalad (Heteranthera limosa); test: Test D flooded paddy test, ducksalad; design: key: 0 = no effect, 100 = complete control; details: 250 g ai/ha, Flood; applied to paddy water at 2-leaf stage; visual rating after 13 days; scale 0 (no effect) to 100 (complete control)
In short: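 Pots holding 2-leaf-stage plants were flooded 3 cm deep and dosed via the water, which stayed at that level. After 13 greenhouse days, injury was scored visually against untreated controls, 0 (none) to 100 (complete control); a dash marks no test result.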

soybean (Glycine max) = test: Test C postemergence, soybean; details: visual injury, 0 to 100 scale (0 no effect, 100 complete control)
[8] = system: pigweed, palmer (palmer amaranth, Amaranthus palmeri); test: Test C preemergence, palmer amaranth; details: 0 is no effect, 100 is complete control
In short: as §1

SMILES: Cc1c(NS(=O)(=O)C(F)(F)F)cc(N2CCC(OC3CC3)C2=O)c(C)c1F (stereo not drawn) [Compound 26]
- Oat, Wild plant response rating [1]: 20
- Plant response rating (0 to 100 scale), Oat, Wild [1]: 50
- Wheat plant response rating ([2]; 31 g ai/ha Postemergence): 60
- Wheat plant response rating ([2]; 125 g ai/ha Postemergence): 70
- Plant response rating (0 to 100 scale), Blackgrass ([3]; 31 g ai/ha Preemergence): 70
- Plant response rating (0 to 100 scale), Blackgrass ([3]; 125 g ai/ha Preemergence): 90
- Plant response rating (0 to 100 scale), Foxtail, Giant ([4]; 31 g ai/ha Preemergence): 90
- Plant response rating (0 to 100 scale), Foxtail, Giant ([4]; 125 g ai/ha Preemergence): 100
- Plant response rating (0 to 100 scale), Oat, Wild ([5]; 31 g ai/ha Preemergence): 60
- Plant response rating (0 to 100 scale), Oat, Wild ([5]; 125 g ai/ha Preemergence): 100
- Plant response rating (0 to 100 scale), Ragweed ([6]; 31 g ai/ha Preemergence): 90
- Plant response rating (0 to 100 scale), Ragweed ([6]; 125 g ai/ha Preemergence): 100
- Plant response rating, Ducksalad [7]: 75
- Soybean plant response rating (soybean (Glycine max); 31 g ai/ha Postemergence): 70
- Soybean plant response rating (soybean (Glycine max); 125 g ai/ha Postemergence): 100
- Plant response rating (0 to 100 scale), Pigweed, Palmer ([8]; 31 g ai/ha Preemergence): 100
- Plant response rating (0 to 100 scale), Pigweed, Palmer ([8]; 125 g ai/ha Preemergence): 100

SMILES: Cc1c(N2CCC(OC3CCC3)C2=O)cc(N(COC(=O)C(C)(C)C)S(=O)(=O)C(F)(F)F)c(C)c1F (stereo not drawn) [Compound 28]
- Oat, Wild plant response rating [1]: 20
- Plant response rating (0 to 100 scale), Oat, Wild [1]: 30
- Wheat plant response rating ([2]; 31 g ai/ha Postemergence): 20
- Wheat plant response rating ([2]; 125 g ai/ha Postemergence): 60
- Plant response rating (0 to 100 scale), Blackgrass ([3]; 31 g ai/ha Preemergence): 50
- Plant response rating (0 to 100 scale), Blackgrass ([3]; 125 g ai/ha Preemergence): 60
- Plant response rating (0 to 100 scale), Foxtail, Giant ([4]; 31 g ai/ha Preemergence): 70
- Plant response rating (0 to 100 scale), Foxtail, Giant ([4]; 125 g ai/ha Preemergence): 100
- Plant response rating (0 to 100 scale), Oat, Wild ([5]; 31 g ai/ha Preemergence): 0
- Plant response rating (0 to 100 scale), Oat, Wild ([5]; 125 g ai/ha Preemergence): 20
- Plant response rating (0 to 100 scale), Ragweed ([6]; 31 g ai/ha Preemergence): 40
- Plant response rating (0 to 100 scale), Ragweed ([6]; 125 g ai/ha Preemergence): 100
- Plant response rating, Ducksalad [7]: 70
- Soybean plant response rating (soybean (Glycine max); 31 g ai/ha Postemergence): 50
- Soybean plant response rating (soybean (Glycine max); 125 g ai/ha Postemergence): 60
- Plant response rating (0 to 100 scale), Pigweed, Palmer ([8]; 31 g ai/ha Preemergence): 30
- Plant response rating (0 to 100 scale), Pigweed, Palmer ([8]; 125 g ai/ha Preemergence): 80

SMILES: Cc1cc(Cl)c(N(COC(=O)C(C)(C)C)S(=O)(=O)C(F)(F)F)cc1N1CCC(OC2CC2)C1=O (stereo not drawn) [Compound 33]
- Oat, Wild plant response rating [1]: 30
- Plant response rating (0 to 100 scale), Oat, Wild [1]: 70
- Wheat plant response rating ([2]; 31 g ai/ha Postemergence): 50
- Wheat plant response rating ([2]; 125 g ai/ha Postemergence): 70
- Plant response rating (0 to 100 scale), Blackgrass ([3]; 31 g ai/ha Preemergence): 20
- Plant response rating (0 to 100 scale), Blackgrass ([3]; 125 g ai/ha Preemergence): 80
- Plant response rating (0 to 100 scale), Foxtail, Giant ([4]; 31 g ai/ha Preemergence): 70
- Plant response rating (0 to 100 scale), Foxtail, Giant ([4]; 125 g ai/ha Preemergence): 100
- Plant response rating (0 to 100 scale), Oat, Wild ([5]; 31 g ai/ha Preemergence): 10
- Plant response rating (0 to 100 scale), Oat, Wild ([5]; 125 g ai/ha Preemergence): 50
- Plant response rating (0 to 100 scale), Ragweed ([6]; 31 g ai/ha Preemergence): 30
- Plant response rating (0 to 100 scale), Ragweed ([6]; 125 g ai/ha Preemergence): 80
- Plant response rating, Ducksalad [7]: 80
- Soybean plant response rating (soybean (Glycine max); 31 g ai/ha Postemergence): 80
- Soybean plant response rating (soybean (Glycine max); 125 g ai/ha Postemergence): 100
- Plant response rating (0 to 100 scale), Pigweed, Palmer ([8]; 31 g ai/ha Preemergence): 70
- Plant response rating (0 to 100 scale), Pigweed, Palmer ([8]; 125 g ai/ha Preemergence): 80

SMILES: Cc1cc(C)c(N2CCC(OC3COC3)C2=O)cc1NS(=O)(=O)C(F)(F)F (stereo not drawn) [Compound 34]
- Oat, Wild plant response rating [1]: 30
- Plant response rating (0 to 100 scale), Oat, Wild [1]: 70
- Wheat plant response rating ([2]; 31 g ai/ha Postemergence): 70
- Wheat plant response rating ([2]; 125 g ai/ha Postemergence): 80
- Plant response rating (0 to 100 scale), Blackgrass ([3]; 31 g ai/ha Preemergence): 30
- Plant response rating (0 to 100 scale), Blackgrass ([3]; 125 g ai/ha Preemergence): 50
- Plant response rating (0 to 100 scale), Foxtail, Giant ([4]; 31 g ai/ha Preemergence): 90
- Plant response rating (0 to 100 scale), Foxtail, Giant ([4]; 125 g ai/ha Preemergence): 90
- Plant response rating (0 to 100 scale), Oat, Wild ([5]; 31 g ai/ha Preemergence): 30
- Plant response rating (0 to 100 scale), Oat, Wild ([5]; 125 g ai/ha Preemergence): 80
- Plant response rating (0 to 100 scale), Ragweed ([6]; 31 g ai/ha Preemergence): 50
- Plant response rating (0 to 100 scale), Ragweed ([6]; 125 g ai/ha Preemergence): 100
- Plant response rating, Ducksalad [7]: 65
- Soybean plant response rating (soybean (Glycine max); 31 g ai/ha Postemergence): 60
- Soybean plant response rating (soybean (Glycine max); 125 g ai/ha Postemergence): 70
- Plant response rating (0 to 100 scale), Pigweed, Palmer ([8]; 31 g ai/ha Preemergence): 100
- Plant response rating (0 to 100 scale), Pigweed, Palmer ([8]; 125 g ai/ha Preemergence): 100

SMILES: Cc1c(NS(=O)(=O)C(F)(F)F)cc(N2CCCC(OC3CCC3)C2=O)c(C)c1F (stereo not drawn) [Compound 36]
- Oat, Wild plant response rating [1]: 30
- Plant response rating (0 to 100 scale), Oat, Wild [1]: 30
- Wheat plant response rating ([2]; 31 g ai/ha Postemergence): 60
- Wheat plant response rating ([2]; 125 g ai/ha Postemergence): 60
- Plant response rating (0 to 100 scale), Blackgrass ([3]; 31 g ai/ha Preemergence): 80
- Plant response rating (0 to 100 scale), Blackgrass ([3]; 125 g ai/ha Preemergence): 100
- Plant response rating (0 to 100 scale), Foxtail, Giant ([4]; 31 g ai/ha Preemergence): 50
- Plant response rating (0 to 100 scale), Foxtail, Giant ([4]; 125 g ai/ha Preemergence): 100
- Plant response rating (0 to 100 scale), Oat, Wild ([5]; 31 g ai/ha Preemergence): 30
- Plant response rating (0 to 100 scale), Oat, Wild ([5]; 125 g ai/ha Preemergence): 90
- Plant response rating (0 to 100 scale), Ragweed ([6]; 31 g ai/ha Preemergence): 70
- Plant response rating (0 to 100 scale), Ragweed ([6]; 125 g ai/ha Preemergence): 90
- Plant response rating, Ducksalad [7]: 65
- Soybean plant response rating (soybean (Glycine max); 31 g ai/ha Postemergence): 70
- Soybean plant response rating (soybean (Glycine max); 125 g ai/ha Postemergence): 70
- Plant response rating (0 to 100 scale), Pigweed, Palmer ([8]; 31 g ai/ha Preemergence): 90
- Plant response rating (0 to 100 scale), Pigweed, Palmer ([8]; 125 g ai/ha Preemergence): 100

SMILES: Cc1c(N2CCCC(OC3CC3)C2=O)cc(N(COC(=O)C(C)(C)C)S(=O)(=O)C(F)(F)F)c(C)c1F (stereo not drawn) [Compound 37]
- Oat, Wild plant response rating [1]: 20
- Plant response rating (0 to 100 scale), Oat, Wild [1]: 70
- Wheat plant response rating ([2]; 31 g ai/ha Postemergence): 10
- Wheat plant response rating ([2]; 125 g ai/ha Postemergence): 60
- Plant response rating (0 to 100 scale), Blackgrass ([3]; 31 g ai/ha Preemergence): 10
- Plant response rating (0 to 100 scale), Blackgrass ([3]; 125 g ai/ha Preemergence): 60
- Plant response rating (0 to 100 scale), Foxtail, Giant ([4]; 31 g ai/ha Preemergence): 20
- Plant response rating (0 to 100 scale), Foxtail, Giant ([4]; 125 g ai/ha Preemergence): 90
- Plant response rating (0 to 100 scale), Oat, Wild ([5]; 31 g ai/ha Preemergence): 20
- Plant response rating (0 to 100 scale), Oat, Wild ([5]; 125 g ai/ha Preemergence): 20
- Plant response rating (0 to 100 scale), Ragweed ([6]; 31 g ai/ha Preemergence): 0
- Plant response rating (0 to 100 scale), Ragweed ([6]; 125 g ai/ha Preemergence): 90
- Plant response rating, Ducksalad [7]: 70
- Soybean plant response rating (soybean (Glycine max); 31 g ai/ha Postemergence): 60
- Soybean plant response rating (soybean (Glycine max); 125 g ai/ha Postemergence): 70
- Plant response rating (0 to 100 scale), Pigweed, Palmer ([8]; 31 g ai/ha Preemergence): 50
- Plant response rating (0 to 100 scale), Pigweed, Palmer ([8]; 125 g ai/ha Preemergence): 90
